For experiment [1], the system named is Enterococcus faecium ATCC 35667. In words: In vitro antibacterial activity, CLSI M07-A10 dilution (MIC). Type of experiment: cell-based. Particulars: ATCC35667.
In experiment [2] the test system is Staphylococcus aureus ATCC BAA-1556 (MERSA resistant). Described as above. Type of experiment: cell-based. The conditions noted are these: ATCCBAA1556.
The subject of experiment [3] is Bacillus subtilis MTCC 441. The description is as above. It is filed as cell-based. Particulars: MTCC441.
Experiment [4] relates to Staphylococcus aureus ATCC 29213. The experiment is described as above. It is filed as cell-based. Particulars: ATCC29213.
Experiment [5] deals with Escherichia coli MTCC 443. Described as above. It is filed as cell-based. The conditions noted are these: MTCC443.
Experiment [6] concerns Pseudomonas aeruginosa MTCC 741. The experiment is described as above. Type of experiment: cell-based. Particulars: MTCC741.
Experiment [7] has as its system Klebsiella pneumonia MTCC 618. The experiment is described as above. Type of experiment: cell-based. The conditions noted are these: Klebsiella pneumoniae, MTCC618.
For experiment [8], the system named is Staphylococcus epidermidis. Described as above. Type of experiment: cell-based.
Experiment [9] relates to Enterococcus faecium ATCC 51559 (VRE resistant). Described as above. Type of experiment: cell-based.
For another experiment, the target named is T1, DNA gyrase from E. coli (Escherichia coli, UniProt P0AES4+P0AES6).
T1 construct: purchased Inspiralis
T1 sequence (P0AES4 whole entry, one chain of several): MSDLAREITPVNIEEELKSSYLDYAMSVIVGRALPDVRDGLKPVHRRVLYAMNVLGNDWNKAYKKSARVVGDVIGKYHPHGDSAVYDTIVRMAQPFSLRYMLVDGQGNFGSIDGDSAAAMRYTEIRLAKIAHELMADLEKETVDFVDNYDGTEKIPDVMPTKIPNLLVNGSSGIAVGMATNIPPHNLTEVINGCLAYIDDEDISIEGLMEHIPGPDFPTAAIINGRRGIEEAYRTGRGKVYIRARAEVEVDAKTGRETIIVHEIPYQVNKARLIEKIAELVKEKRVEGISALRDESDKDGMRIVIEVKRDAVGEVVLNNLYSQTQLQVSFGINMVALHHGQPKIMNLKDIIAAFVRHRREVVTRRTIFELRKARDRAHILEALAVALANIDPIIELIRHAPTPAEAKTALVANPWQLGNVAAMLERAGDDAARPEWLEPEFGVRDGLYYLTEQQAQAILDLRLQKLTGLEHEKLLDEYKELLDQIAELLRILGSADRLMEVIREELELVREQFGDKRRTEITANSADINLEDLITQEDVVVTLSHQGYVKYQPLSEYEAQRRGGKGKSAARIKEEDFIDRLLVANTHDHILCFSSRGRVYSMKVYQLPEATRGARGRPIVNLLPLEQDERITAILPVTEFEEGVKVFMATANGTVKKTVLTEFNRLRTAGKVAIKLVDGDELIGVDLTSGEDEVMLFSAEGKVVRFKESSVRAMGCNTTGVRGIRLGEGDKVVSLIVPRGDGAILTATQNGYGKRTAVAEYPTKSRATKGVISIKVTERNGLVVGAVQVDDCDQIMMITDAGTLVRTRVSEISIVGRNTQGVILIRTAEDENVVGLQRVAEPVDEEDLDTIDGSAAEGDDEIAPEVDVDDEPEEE
In words: Inhibitory activity on E. coli DNA gyrase (Inspiralis assay). It is filed as biochemical. As to the method:
Inhibitory potencies were investigated utilizing the Inspiralis assay on streptavidin-coated 96-well microtiter plates. First, the plates were rehydrated with buffer (20 mM Tris-HCl with pH 7.6, 0.01% w/v BSA, 0.05% v/v Tween 20, 137 mM NaCl) and the biotinylated oligonucleotide was then immobilized. After washing off the unbound oligonucleotide, the enzyme test was performed. The reaction volume of 30 μL in buffer (35 mM Tris×HCl with pH 7.5, 4 mM MgCl2, 24 mM KCl, 2 mM DTT, 1.8 mM spermidine, 1 mM ATP, 6.5% w/v glycerol, 0.1 mg/mL albumin) contained 1.5 U of DNA gyrase from E. coli, 0.75 μg of relaxed pNO1 plasmid, and 3 μL solution of the inhibitor in 10% DMSO and 0.008% Tween 20. Reaction solutions were incubated at 37° C. for 30 min. After that, the TF buffer (50 mM NaOAc with pH 5.0, 50 mM NaCl and 50 mM MgCl2) was added to terminate the enzymatic reaction. After additional incubation for 30 min at rt, during which biotinoligonucleotide-plasmid triplex was formed, the unbound plasmid was washed off using TF buffer and SybrGOLD in T10 buffer (10 mM Tris HCl with pH 8.0 and 1 mM EDTA) was added. The fluorescence was measured with a microplate reader (BioTek Synergy H4, excitation: 485 nm, emission: 535 nm). Initial screening was done at 100 or 10 μM concentration of inhibitors. […] GraphPad Prism software was used to calculate the IC50 values. […]

The test system of experiment [10] is Mycobacterium tuberculosis H37Rv strain. Nature of the experiment: Anti-tubercular alamar blue microplate assay (MIC). Type of experiment: cell-based. The conditions noted are these: 168 h, M. tuberculosis H37Rv, seven days at 37° C., read-out: anti-mycobacterial activity (MIC). A general note: Resazurin is reduced to fluorescent resorufin, in cell work by metabolically active cells.

One may read the MIC as the lowest concentration found to suppress growth. Usually IC50 stands for the concentration needed to halve the response being measured.

Converted amounts (≈) assume the structure as drawn. Like-named read-outs stand apart in the source and are kept apart here.

Take `CN[C@H](CC(C)C)C(=O)N[C@H]1C(=O)N[C@@H](CC(N)=O)C(=O)N[C@H]2C(=O)N[C@H]3C(=O)N[C@H](C(=O)N[C@H](C(=O)O)c4cc(O)cc(O)c4-c4cc3ccc4O)[C@H](O)c3ccc(c(Cl)c3)Oc3cc2cc(c3O[C@@H]2O[C@H](CO)[C@@H](O)[C@H](O)[C@H]2O[C@H]2C[C@](C)(N)[C@H](O)[C@H](C)O2)Oc2ccc(cc2Cl)[C@H]1O` [Vancomycin, reference compound]: the minimal inhibitory concentration (MIC) in experiment [1] (Enterococcus faecium) was 0.5 µg/mL (≈ 0.345 µM); in experiment [2] (Staphylococcus aureus) it was 1 µg/mL (≈ 0.69 µM); in experiment [3] (Bacillus subtilis), 0.5 µg/mL (≈ 0.345 µM); in [4] (Staphylococcus aureus) it was 1 µg/mL (≈ 0.69 µM); in experiment [5] (Escherichia coli), greater than 128 µg/mL; in experiment [6] (Pseudomonas aeruginosa), greater than 128 µg/mL. Further, the MIC in experiment [7] was greater than 128 µg/mL; in experiment [8] it was 1 µg/mL (≈ 0.69 µM); in experiment [9] (Enterococcus faecium), greater than 128 µg/mL.

As to `CCCCCN(C)Cc1cc(-c2c3c(nc4cc(NC(=O)C5CC5)ccc24)COC3=O)ccc1C(=O)O` [Compound 8, 4-(6-(cyclopropanecarboxamido)-1-oxo-1,3-dihydrofuro[3,4-b]quinolin-9-yl)-2-((methyl(pentyl)amino)methyl)benzoic acid], the MIC in experiment [1] (Enterococcus faecium ATCC 35667, read-out: MIC) turned out to be 8 µg/mL (≈ 15.9 µM); in experiment [2] (Staphylococcus aureus ATCC BAA-1556 (MERSA resistant), read-out: MIC) it was 16 µg/mL (≈ 31.9 µM); in experiment [3] (Bacillus subtilis MTCC 441, read-out: MIC), 8 µg/mL (≈ 15.9 µM); in [10], 4 µg/mL (≈ 7.97 µM); in [4] (Staphylococcus aureus ATCC 29213, read-out: MIC), 16 µg/mL (≈ 31.9 µM); in experiment [5] (Escherichia coli MTCC 443, read-out: MIC), 16 µg/mL (≈ 31.9 µM). The MIC in experiment [6] (Pseudomonas aeruginosa MTCC 741, read-out: MIC) turned out to be 8 µg/mL (≈ 15.9 µM); in experiment [7] (Klebsiella pneumonia MTCC 618, read-out: MIC), 8 µg/mL (≈ 15.9 µM); in experiment [8] (read-out: MIC) it was 16 µg/mL (≈ 31.9 µM); in [9] (Enterococcus faecium ATCC 51559 (VRE resistant), read-out: MIC) it was 16 µg/mL (≈ 31.9 µM). For the same molecule, the IC50 on DNA gyrase from E. coli amounted to 550 nM.

Values taken from patent US11731980B1, “Furo[3,4-b]quinolone compounds as antibacterial agents” (KING FAISAL UNIVERSITY, priority 2023, dated 2023).
